Data reported in article PMC11009276, “Design, synthesis, biological assessment and molecular modeling studies of novel imidazothiazole-thiazolidinone hybrids as potential anticancer and anti-inflammatory agents” (Scientific Reports, 2024).
Read-outs that look alike come from different tables or passages of the source.

Columns and labels:
[1] = molecular target: Bovine serum albumin (BSA) (Bos taurus, UniProt P02769); assay: BSA (protein albumin) denaturation inhibition assay; settings: for BSA denaturation inhibition assay Mean absorbance ± SEM: 100 μg/mL, 660 nm
Bovine serum albumin (BSA), sequence (P02769 25-607): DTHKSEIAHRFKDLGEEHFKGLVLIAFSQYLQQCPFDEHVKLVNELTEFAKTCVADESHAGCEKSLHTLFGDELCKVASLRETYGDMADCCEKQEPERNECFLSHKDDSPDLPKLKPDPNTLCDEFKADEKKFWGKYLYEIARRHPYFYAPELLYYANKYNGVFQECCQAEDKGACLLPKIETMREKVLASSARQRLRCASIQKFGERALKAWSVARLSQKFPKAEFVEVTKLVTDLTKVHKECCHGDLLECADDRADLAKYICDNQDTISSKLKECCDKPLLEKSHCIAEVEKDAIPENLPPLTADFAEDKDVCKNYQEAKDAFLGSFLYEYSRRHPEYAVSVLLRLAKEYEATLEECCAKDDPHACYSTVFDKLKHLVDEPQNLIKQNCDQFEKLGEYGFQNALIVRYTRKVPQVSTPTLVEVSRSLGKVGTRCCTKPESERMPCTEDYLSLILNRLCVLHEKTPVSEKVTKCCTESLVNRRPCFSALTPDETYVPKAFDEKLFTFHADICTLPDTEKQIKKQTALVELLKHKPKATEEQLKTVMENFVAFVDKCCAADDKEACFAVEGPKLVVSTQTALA
Procedure: All the synthesized compounds were evaluated for anti-inflammatory activity by the inhibition of the albumin denaturation technique. […] All the test solutions (1 mL, 100 μg/mL) were then mixed with 1 mL of albumin solution (1%) and phosphate buffer saline and then incubated for around 15 min at 27 ± 1 °C. Further, the denaturation of protein was induced by keeping the reaction mixture on the water bath for 10 min and maintaining the temperature at 60 °C. Once the solution gets cooled, the turbidity was measured using UV–Visible spectrophotometer at 660 nm.

[2] = tested on: HEK293 human embryonic kidney cell line; assay: MTT cytotoxicity assay, normal cell line HEK293; assay type: cell-based; settings: HEK293, MTT, 72 h, normal cell line, read-out: IC50 (Mean ± SD) HEK293
Procedure: All the synthesized imidazothiazole derivatives linked with thiazolidinone moiety (4a-g and 5a-d, Fig. 4) were evaluated for their in- vitro anticancer activities against three selected human cancer cell lines namely non-small lung (A549), breast (MCF7) and colorectal (HCT116) and one normal human embryonic kidney cell line (HEK293) using the 3‐(4,5‐Dimethylthiazol‐2‐yl)-2,5‐Diphenyltetrazolium Bromide (MTT) assay method. […]. […].
Cytotoxicity study of the newly synthesized derivatives 4a-g and 5a-d was performed by MTT colorimetric assay method. […] Compounds were tested against selected cancer cell lines namely A549 (Lung), MCF-7(Breast) HCT116 (Colon), normal human embryonic kidney cell line (HEK293) and procured from National Centre for Cell Science Complex (NCCS) Pune University, India. Into a 96 well plate, cells were seeded into each well (3 × 10^3 cells/ per well), the plate were incubated for 24 h, after that the culture medium was discarded and replaced with fresh medium along with our newly synthesized test compounds in different concentration (10, 20, 40 and 80 µM) followed by incubation for 72 h. Further, the media of each well of the plates were aspirated with the addition of 100 µL MTT solution followed by incubation for the next 5 h at 37 °C. Finally, each well is treated with DMSO (100 µL) and swirled to dissolve the dark crystals of formazan. ELISA reader was used to measure the absorbance at 570 nm. The experiment was repeated three times; Graph pad prism and excel are used to calculate the IC50 values.

[3] = Acute oral toxicity study; settings: Wistar, rat, in vivo, 500 mg/kg
Procedure: Doxorubicin is used as standard drug […].
Animals (Wistar rats) procured were divided into three groups randomly, with six rats in each group. […] Group III is taken as control; all the animals were treated with 0.5 ml of sunflower oil per rat. All the animals were under observation, and after 24 h, mortality of treated animals was recorded. […] All the experiments performed were carried out with the approval of the IAEC, Jamia Hamdard, New Delhi.

[4] = read-out: BSA denaturation inhibition assay % inhibition of denaturation

| melting point [°C] | inhibition at 100 µg/mL ([1]; read-out: BSA denaturation inhibition assay % inhibition of denaturation, 100 μg/mL) [%] | Compound | BSA denaturation inhibition assay Mean absorbance ± SEM [1] | inhibition at 100 µg/mL [1, 4] [%] | IC50 [2] [µM] | LD50 at 14 days [3] [mg/kg] |
| --- | --- | --- | --- | --- | --- | --- |
| – | – | CC1SC(c2c(-c3ccccc3)nc3sccn23)N(c2ccc(Br)cc2)C1=O (centres unmarked) [Compound 4c, 3-(4-Bromophenyl)-5-methyl-2-(6-phenylimidazo[2,1-b]thiazol-5-yl) thiazolidin-4-one] | 0.332 ± 0.006 | 83.6 | 96.4 ± 1.79 | > 500 |
| – | – | CC1SC(c2c(-c3ccccc3)nc3sccn23)N(c2ccc(Cl)cc2)C1=O (centres unmarked) [Compound 4b, 3-(4-Chlorophenyl)-5-methyl-2-(6-phenylimidazo[2,1-b]thiazol-5-yl) thiazolidin-4-one] | 0.329 ± 0.001 | 84.9 | 101 ± 3.41 | > 500 |
| 165 to 167 | 82.1 | CC1SC(c2c(-c3ccccc3)nc3sccn23)N(c2ccc(F)cc2)C1=O (centres unmarked) [Compound 4a, 3-(4-Fluorophenyl)-5-methyl-2-(6-phenylimidazo[2,1-b]thiazol-5-yl) thiazolidin-4-one] | – | – | 147 ± 4.3 | – |
